According to article PMC7875316 (Biochemistry, 2020):

Target: T1, ClpL (Streptococcus mutans, UniProt Q8DUH3)
T1 sequence (Q8DUH3 1-701): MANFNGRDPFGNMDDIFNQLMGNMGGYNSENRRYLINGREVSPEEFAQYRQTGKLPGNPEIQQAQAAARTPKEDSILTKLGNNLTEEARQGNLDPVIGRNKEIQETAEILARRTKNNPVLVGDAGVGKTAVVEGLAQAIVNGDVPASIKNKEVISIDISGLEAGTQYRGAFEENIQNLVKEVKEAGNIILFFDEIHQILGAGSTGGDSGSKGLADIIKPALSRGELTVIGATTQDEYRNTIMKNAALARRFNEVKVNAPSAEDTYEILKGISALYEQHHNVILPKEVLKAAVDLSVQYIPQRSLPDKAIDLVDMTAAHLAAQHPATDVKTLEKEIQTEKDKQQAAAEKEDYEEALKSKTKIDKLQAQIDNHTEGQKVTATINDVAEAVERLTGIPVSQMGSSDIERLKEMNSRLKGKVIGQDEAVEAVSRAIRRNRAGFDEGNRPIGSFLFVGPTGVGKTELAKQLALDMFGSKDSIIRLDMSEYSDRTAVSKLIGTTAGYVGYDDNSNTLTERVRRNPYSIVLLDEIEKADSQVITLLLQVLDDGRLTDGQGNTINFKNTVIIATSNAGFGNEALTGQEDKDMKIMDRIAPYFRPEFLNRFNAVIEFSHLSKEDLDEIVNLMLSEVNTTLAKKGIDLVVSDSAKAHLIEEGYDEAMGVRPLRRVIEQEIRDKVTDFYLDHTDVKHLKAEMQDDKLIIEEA
Test: protection from limited trypsin proteolysis, SDS-PAGE
Format: binding
Details: 1 mM ADP (legend; methods say 5 mM), 20 mM MgCl2, room temperature

With `Nc1ncnc2c1ncn2[C@@H]1O[C@H](COP(=O)(O)OP(=O)(O)O)[C@@H](O)[C@H]1O` [ADP] as the compound, how does the “protection from limited trypsin proteolysis, SDS-PAGE” value read?
The value was “Addition of ATP or ADP dramatically increased the stability of ClpL to trypsin digestion”.
